Reference: paper PMC7740640 (Xenobiotica; the fate of foreign compounds in biological …, 2020)
Like-named read-outs stand apart in the source and are kept apart here.

How the values were obtained:
CYP2B6 = molecular target: T1, CYP2B6 (Homo sapiens, UniProt P20813); assay: Inhibition of C152 metabolism, SS
T1 sequence (P20813 1-491): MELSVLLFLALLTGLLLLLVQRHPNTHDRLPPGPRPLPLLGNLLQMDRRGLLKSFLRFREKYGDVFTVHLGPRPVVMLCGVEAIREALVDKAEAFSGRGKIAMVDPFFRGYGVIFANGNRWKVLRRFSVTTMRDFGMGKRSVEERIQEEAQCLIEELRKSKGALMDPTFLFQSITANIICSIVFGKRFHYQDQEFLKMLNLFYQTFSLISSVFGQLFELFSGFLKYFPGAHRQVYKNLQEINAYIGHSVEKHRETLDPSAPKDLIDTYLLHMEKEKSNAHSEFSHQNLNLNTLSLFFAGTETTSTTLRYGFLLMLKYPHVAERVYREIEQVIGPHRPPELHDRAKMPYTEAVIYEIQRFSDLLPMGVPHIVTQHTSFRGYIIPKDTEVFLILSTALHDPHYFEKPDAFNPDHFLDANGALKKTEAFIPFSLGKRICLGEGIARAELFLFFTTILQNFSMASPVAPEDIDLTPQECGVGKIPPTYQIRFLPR

CYP3A4 = CYP3A4 (Homo sapiens, UniProt P08684); assay: Inhibition of C152 metabolism, SS
CYP3A4, sequence (P08684 2-503 limits assumed): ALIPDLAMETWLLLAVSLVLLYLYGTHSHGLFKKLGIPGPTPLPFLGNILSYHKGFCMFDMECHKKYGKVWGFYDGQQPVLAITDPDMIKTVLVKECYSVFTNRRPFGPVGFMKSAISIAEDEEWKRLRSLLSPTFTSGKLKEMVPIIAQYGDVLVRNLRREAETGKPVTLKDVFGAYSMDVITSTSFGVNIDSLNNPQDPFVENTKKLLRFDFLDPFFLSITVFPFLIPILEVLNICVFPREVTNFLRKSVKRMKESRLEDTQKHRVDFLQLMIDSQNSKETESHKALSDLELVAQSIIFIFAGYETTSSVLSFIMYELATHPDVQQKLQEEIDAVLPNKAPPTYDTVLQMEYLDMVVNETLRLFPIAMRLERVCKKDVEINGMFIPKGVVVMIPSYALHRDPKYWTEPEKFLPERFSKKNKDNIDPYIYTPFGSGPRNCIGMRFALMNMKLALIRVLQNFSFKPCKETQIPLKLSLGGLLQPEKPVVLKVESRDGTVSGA

[1] = system: human liver microsomes (HLM); assay: Inhibition of C152 metabolism, HLM; format: biochemical; details: 30 μM C152 as substrate
CYP2C19 = CYP2C19 (Homo sapiens, UniProt P33261); assay: Inhibition of C152 metabolism, SS
CYP2C19, sequence (P33261 whole entry): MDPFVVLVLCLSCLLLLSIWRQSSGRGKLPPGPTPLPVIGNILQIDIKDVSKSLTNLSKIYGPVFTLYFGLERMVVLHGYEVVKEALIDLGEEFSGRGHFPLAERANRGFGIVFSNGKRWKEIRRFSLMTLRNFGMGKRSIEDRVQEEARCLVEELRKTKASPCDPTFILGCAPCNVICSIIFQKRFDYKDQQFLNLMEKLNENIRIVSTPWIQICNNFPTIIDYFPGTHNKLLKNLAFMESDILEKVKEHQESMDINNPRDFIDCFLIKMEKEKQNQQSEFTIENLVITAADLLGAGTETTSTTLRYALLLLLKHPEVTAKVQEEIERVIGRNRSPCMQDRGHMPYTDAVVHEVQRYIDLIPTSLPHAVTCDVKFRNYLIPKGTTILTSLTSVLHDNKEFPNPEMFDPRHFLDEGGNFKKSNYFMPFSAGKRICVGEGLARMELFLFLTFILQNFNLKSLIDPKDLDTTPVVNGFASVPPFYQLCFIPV

CYP1A2 = molecular target: T2, CYP1A2 (Homo sapiens, UniProt P05177); assay: C152 metabolism; format: in vitro ADME; details: SS(1A2); initial substrate C152 28 μM; scanning fluorimetry
T2 sequence (P05177 2-516 limits assumed): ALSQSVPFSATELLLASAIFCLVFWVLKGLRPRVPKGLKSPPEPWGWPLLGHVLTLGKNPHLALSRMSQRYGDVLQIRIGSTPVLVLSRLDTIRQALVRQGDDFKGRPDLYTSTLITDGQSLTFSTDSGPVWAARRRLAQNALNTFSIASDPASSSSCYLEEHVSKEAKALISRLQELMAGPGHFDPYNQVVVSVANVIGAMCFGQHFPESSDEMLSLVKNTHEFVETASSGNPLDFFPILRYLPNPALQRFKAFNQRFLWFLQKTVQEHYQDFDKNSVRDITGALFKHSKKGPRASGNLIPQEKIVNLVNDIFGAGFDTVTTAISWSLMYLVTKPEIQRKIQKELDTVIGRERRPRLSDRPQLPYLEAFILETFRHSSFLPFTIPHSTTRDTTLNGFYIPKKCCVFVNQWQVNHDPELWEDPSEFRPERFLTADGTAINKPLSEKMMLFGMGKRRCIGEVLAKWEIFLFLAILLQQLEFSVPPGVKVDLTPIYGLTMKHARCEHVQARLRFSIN

[2] = SS(2B6), 30 μM C152 as substrate
[3] = SS(3A4), 30 μM C152 as substrate

SMILES | IC50 [1] | IC50 (CYP2C19) | IC50 (CYP2B6) | Inhibition (maximal amplitude) [1] | also measured
CC[C@@]1(c2ccccc2)NC(=O)N(Cc2ccccc2)C1=O [BNVL, (S)-(+)-N-3-benzylnirvanol] | 0.51 ± 0.03 µM |  |  |  | IC50 (CYP2B6; [2]): 8.5 ± 2.3 µM; Inhibition (maximal amplitude) (CYP2B6; [2]): 81±7%; IC50 (CYP3A4; [3]): 27 ± 3 µM; Inhibition (maximal amplitude) (CYP3A4; [3]): 59±10%
Clc1ccccc1C(c1ccccc1)(c1ccccc1)n1ccnc1 [CTZ, clotrimazole] |  | 0.2 ± 0.11 µM |  |  | 
CNc1ccc2c(C(F)(F)F)cc(=O)oc2c1 [DC152, 7-methylamino-4-trifluoromethyl coumarin] |  |  |  |  | maximal level of formation of DC152 (CYP1A2): ~ 4 μM
CC(=O)N1CCN(c2ccc(OCC3COC(Cn4ccnc4)(c4ccc(Cl)cc4Cl)O3)cc2)CC1 (stereo not drawn) [KCZ, ketoconazole] | 1.9 ± 0.2 µM |  | 9.5 ± 2.8 µM | 89±7% | 
Clc1ccc(Cc2ccncc2)cc1 [CBP, 4-(4-Chlorobenzyl)pyridine] | 225 ± 30 µM | 215 ± 118 µM | 0.038 ± 0.016 µM | 88±12% | IC50 (CYP3A4): 225 ± 73 µM
